What all share (assay): relative viability (nuclei count vs DMSO), 5 days (fraction); higher = more cells survive
Compound in assay [1]: Cn1nnc2c(C(N)=O)ncn2c1=O [Temozolomide] + C[C@@H](Oc1cc(-c2cnn(C3CCNCC3)c2)cnc1N)c1c(Cl)ccc(F)c1Cl [Crizotinib] (partner 1 µM)
In a few lines: (§1)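 Lung cancer cell lines, seeded in 1536-well plates, were treated the following day by pin tool with a single drug or with five library-drug doses (not always all listed) in √10 steps on top of a fixed anchor-drug dose. Cells were fixed and nuclei stained in one step after 5 days, and nuclei were counted. Relative viability is the nuclei count for treated wells divided by that for vehicle wells, reported as medians of duplicate plates.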

Compound in the assay “Temozolomide + Alpelisib”: Cn1nnc2c(C(N)=O)ncn2c1=O [Temozolomide] + Cc1nc(NC(=O)N2CCC[C@H]2C(N)=O)sc1-c1ccnc(C(C)(C)C(F)(F)F)c1 [Alpelisib] (partner 2 µM)
In outline:
as §1

Compound in assay [2]: Cn1nnc2c(C(N)=O)ncn2c1=O [Temozolomide] + C[C@]1(O)C[C@@H](c2nc(-c3ccc4ccc(-c5ccccc5)nc4c3)c3c(N)nccn32)C1 [Linsitinib] (partner 1 µM)
In a few lines: as §1

Compound in the assay “AZD5582 + Olaparib”: C[C@@H](C(=O)N[C@@H](C1CCCCC1)C(=O)N2CCC[C@H]2C(=O)N[C@@H]3[C@@H](CC4=CC=CC=C34)OCC#CC#CCO[C@@H]5CC6=CC=CC=C6[C@@H]5NC(=O)[C@@H]7CCCN7C(=O)[C@H](C8CCCCC8)NC(=O)[C@H](C)NC)NC [AZD5582] + O=C(c1cc(Cc2n[nH]c(=O)c3ccccc23)ccc1F)N1CCN(C(=O)C2CC2)CC1 [Olaparib] (partner 8 µM)
In outline:
as §1

As to NCI-H1703, the relative viability in assay [1] (first compound 0.2 µM) came to 0.746; in assay [1] (first compound 0.6325 µM), 0.648; in assay [1] (first compound 2 µM) it was 0.876; in assay [1] (first compound 6.325 µM) it was 0.8; in assay [1] (first compound 20 µM), 0.846; with Temozolomide + Alpelisib (first compound 0.2 µM), 0.367. The relative viability is 0.344 with Temozolomide + Alpelisib (first compound 0.6325 µM); 0.463 with Temozolomide + Alpelisib (first compound 2 µM); 0.288 with Temozolomide + Alpelisib (first compound 6.325 µM); 0.315 with Temozolomide + Alpelisib (first compound 20 µM); 0.863 in assay [2] (first compound 0.2 µM); 0.609 in assay [2] (first compound 0.6325 µM). Also, the relative viability in assay [2] (first compound 2 µM) was 1.32; in assay [2] (first compound 6.325 µM), 0.841; in assay [2] (first compound 20 µM), 0.95; in the assay with AZD5582 + Olaparib (first compound 0.005 µM), 0.413; with AZD5582 + Olaparib (first compound 0.01581 µM), 0.487; with AZD5582 + Olaparib (first compound 0.05 µM) it was 0.54.

The record behind these values is the supplement of paper PMC10307832.
